Test: Photochromic properties of lens samples (2 mm, compound in the mass of cross-linked matrix I or II) exposed to UV radiation from a xenon lamp
Assay type: physicochemical
Conditions: lens sample
Text: The matrix used in accordance with the present invention may be one of two types:
A homopolymer of the monomer DIACRYL 121 (D121 : tetraethoxylated Bisphenol A dimethylmethacrylate), marketed by Akzo Nobel; or
A copolymer comprised of a 50/50 mixture by weight of D121 (as above) and polyethylene glycol dimethacrylate (Molecular weight = 400) (PEGDMA 400).
10^-5 moles of at least one compound of the invention, together with 0.2% by weight of AMBN (2,2'-azobis(2-methylbutyronitrile)) provided by Akzo, are added to 10 g of formulations able to generate cross-linked matrix I or II. The formulations thus prepared are then poured into a lens mould of 2 mm thickness and then cured by heating at 60°C for 6 hours, followed by heating at 80°C for 2 hours to give a lens sample. The photochromic properties of the lens samples thus obtained were then evaluated as follows : Said lens sample, containing said photochromic compounds in its mass, is exposed to a UV radiation (source: xenon lamp).

[1] = Matrix II (50/50 D121 / PEGDMA 400 copolymer)
[2] = Matrix I (homopolymer of DIACRYL 121)

| Structure (SMILES) | OID : optical induced density (D∞-D0) [1] | T0 : the transmission before exposure to UV [1] [%] | λmax: the maximum absorption in the visible spectrum after UV irradiation [1] [nm] | OID : optical induced density (D∞-D0) [2] | T0 : the transmission before exposure to UV [2] [%] | λmax: the maximum absorption in the visible spectrum after UV irradiation [2] [nm] | TD15: the transmission after 15 minutes' exposure to UV [1] [%] | TD15: the transmission after 15 minutes' exposure to UV [2] [%] |
| --- | --- | --- | --- | --- | --- | --- | --- | --- |
| COc1ccc(C2(c3ccc(OC)cc3OC)C=Cc3c(c(C(=O)N4CCOCC4)cc4ccccc34)O2)c(OC)c1 [Example 2, 3,3-bis(2,4-dimethoxyphenyl)-5-morpholinocarbonyl-3H-naphtho[2,1-b]pyran] |  |  |  | 1.303 | 85.7 | 514 |  | 4.3 |
| COc1ccc(C2(c3ccc(OC)c(OC)c3)C=Cc3c(c(C(=O)N4CCOCC4)cc4ccccc34)O2)c(OC)c1 (stereo not drawn) [Example 7, 3-(2,4-dimethoxyphenyl)-3-(3,4-dimethoxyphenyl)-5-morpholinocarbonyl-3H-naphtho[2,1-b]pyran] | 0.805 | 88.1 | 512 | 0.746 | 88.0 | 512 | 13.8 | 15.8 |
| COc1ccc(C2(c3ccc(N4CCCCC4)cc3)C=Cc3c(c(C(=O)N4CCCCC4)cc4ccccc34)O2)c(OC)c1 (stereo not drawn) [Example 8, 3-(2,4-dimethoxyphenyl)-3-(p-N-piperidinophenyl)-5-piperidinocarbonyl-3H-naphtho[2,1-b]pyran] | 0.769 | 85.8 | 570 | 0.637 | 85.4 | 570 | 14.6 | 19.7 |
| COc1ccc(C2(c3ccc(OC)cc3OC)C=Cc3c(c(C(=O)N4CCCCC4)cc4ccccc34)O2)c(OC)c1 [Example 9, 3,3-bis(2,4-dimethoxyphenyl)-5-piperidinocarbonyl-3H-naphtho[2,1-b]pyran] | 0.765 | 89.0 | 504 |  |  |  | 15.3 |  |

The next lines start with results.

| OID : optical induced density (D∞-D0) [1] | T0 : the transmission before exposure to UV [1] [%] | λmax: the maximum absorption in the visible spectrum after UV irradiation [1] [nm] | OID : optical induced density (D∞-D0) [2] | T0 : the transmission before exposure to UV [2] [%] | λmax: the maximum absorption in the visible spectrum after UV irradiation [2] [nm] | Structure (SMILES) | TD15: the transmission after 15 minutes' exposure to UV [1] [%] | TD15: the transmission after 15 minutes' exposure to UV [2] [%] |
| --- | --- | --- | --- | --- | --- | --- | --- | --- |
| 0.280 | 88 | 436 |  |  |  | C1=CC(c2ccccc2)(c2ccccc2)Oc2ccc3ccccc3c21 [Control, 3,3-bisphenyl-3H-naphtho[2,1-b]pyran, reference compound] | 44 |  |
|  |  |  | 0.315 | 87.9 | 477 | Cc1ccc(NC(=O)c2cc3ccccc3c3c2OC(c2ccccc2)(c2ccccc2)C=C3)cc1 [Example 1, 3,3-diphenyl-5-p-tolylcarbamoyl-3H-naphtho[2,1-b]pyran] |  | 42.6 |
|  |  |  | 0.325 | 65.0 | 556 | CN(C)c1ccc(C2(c3ccc(N(C)C)c4ccccc34)C=Cc3c(c(C(=O)N4CCOCC4)cc4ccccc34)O2)cc1 (stereo not drawn) [Example 4, 3-(4-dimethylaminophenyl)-3-(4-dimethylaminonapthyl)-5-morpholinocarbonyl-3H-naphtho[2,1-b]pyran] |  | 30.8 |
| 1.634 | 84.0 | 514 | 1.063 | 85.6 | 514 | COc1ccc(C2(c3ccc(OC)cc3OC)C=Cc3c(c(C(=O)N4CCc5ccccc54)cc4ccccc34)O2)c(OC)c1 [Example 5, 3,3-bis(2,4-dimethoxyphenyl)-5-indolinocarbonyl--3H-naphtho[2,1-b]pyran] | 2.0 | 7.4 |
| 2.146 | 84.0 |  | 1.931 | 85.4 | 510 | COc1ccc(C2(c3ccc(OC)cc3OC)C=Cc3c(c(C(=O)N4CCOCC4)cc4ccccc34)O2)cc1 (stereo not drawn) [Example 6, 3-(2,4-dimethoxyphenyl)-3-(4-methoxyphenyl)-5-morpholinocarbonyl-3H-naphtho[2,1-b]pyran] | 0.6 | 1.0 |

Source: patent publication EP1038870A1, “3,3-bis(aryl)-5-((N-(un)substituted)amido)naphthopyrans, their preparation, compositions and (co)polymer matrices containing them” (Corning S.A., priority 1999, dated 2000)
